Experimental data as given in BindingDB's records for doi:10.1021/jm058208o (Universidad Central De Venezuela, 2005).

Target: Falcipain-2 (Plasmodium falciparum, UniProt Q9NAW2)
Assay: Falcipain Enzyme Inhibition Assay
Conditions: pH 5.5; 22 °C
Procedure: The substrate peptide terminating in AMC is processed by falcipain-2 with or without inhibitors, and the accumulation of AMC was monitored in a Labsystems Fluoroskan Ascent spectrofluorometer. IC50 values were determined from plots of percent activity over concentration using GraphPad Prism software.

Falcipain-2, sequence (Q9NAW2 whole entry): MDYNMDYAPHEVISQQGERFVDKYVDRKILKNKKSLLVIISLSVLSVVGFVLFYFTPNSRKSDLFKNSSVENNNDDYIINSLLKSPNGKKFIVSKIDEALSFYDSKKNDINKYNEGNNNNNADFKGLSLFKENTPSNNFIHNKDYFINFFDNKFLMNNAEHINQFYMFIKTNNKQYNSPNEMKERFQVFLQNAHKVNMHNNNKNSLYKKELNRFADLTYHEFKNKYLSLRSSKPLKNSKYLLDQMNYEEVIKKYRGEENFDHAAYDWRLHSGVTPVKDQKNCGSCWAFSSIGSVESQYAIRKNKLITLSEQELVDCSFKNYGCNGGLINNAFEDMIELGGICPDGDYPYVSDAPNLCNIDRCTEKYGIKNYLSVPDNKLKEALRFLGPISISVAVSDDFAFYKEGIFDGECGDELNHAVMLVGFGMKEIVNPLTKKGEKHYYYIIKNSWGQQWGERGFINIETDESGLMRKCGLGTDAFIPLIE

Question: Which IC50 does the source give for CC(C)C[C@H](NC(=O)[C@@H]1O[C@H]1C(=O)O)C(=O)NCCCCN=C(N)N [L-trans-3-Carboxyoxiran-2-carbonyl-L-leucylagmatine] here?
Answer: Its IC50 is 0.058 µM.

Question: For O=C(Nc1ccc(Cl)cc1)Nc1ccc(C(=O)/C=C/c2cccnc2)cc1 [3-(4-chlorophenyl)-1-{4-[(2E)-3-(pyridin-3-yl)prop-2-enoyl]phenyl}urea], which IC50 is on record?
Answer: The IC50 was 3.4 µM.

Question: COc1ccc(NC(=O)Nc2ccc(C(=O)/C=C/c3cccnc3)cc2)cc1 [3-(4-methoxyphenyl)-1-{4-[(2E)-3-(pyridin-3-yl)prop-2-enoyl]phenyl}urea] was tested. Which IC50 did it give?
Answer: The IC50 was 12.5 µM.
